Results: patent publication US11420958B2, “Aryl and heteroaryl substituted indole compounds” (BRISTOL-MYERS SQUIBB COMPANY, priority 2017, dated 2022)

Assays:
Type in all cases: cell-based
[1] = target: human TLR9 (Homo sapiens (Human), UniProt Q9NR96); test: TLR9 inhibition reporter assay (HEK-Blue, SEAP); conditions: HEK-Blue cells overexpressing human TLR9, ODN2006 5 nM stimulation
Procedure, shortened: (§1)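 SEAP read-out via detection medium after 22 h at 37 °C, 5% CO2; percent inhibition relative to agonist-plus-DMSO and known-inhibitor wells. Agonists: TLR7 gardiquimod 7.5 μM, TLR8 R848 15.9 μM, TLR9 ODN2006 5 nM (final). Compound range 0.05 nM–50 μM, 30 min pre-treatment.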

[2] = target: human TLR8 (Homo sapiens (Human), UniProt Q9NR97); test: TLR8 inhibition reporter assay (HEK-Blue, SEAP); conditions: HEK-Blue cells overexpressing human TLR8, R848 15.9 μM stimulation
human TLR8, sequence (Q9NR97 27-1041): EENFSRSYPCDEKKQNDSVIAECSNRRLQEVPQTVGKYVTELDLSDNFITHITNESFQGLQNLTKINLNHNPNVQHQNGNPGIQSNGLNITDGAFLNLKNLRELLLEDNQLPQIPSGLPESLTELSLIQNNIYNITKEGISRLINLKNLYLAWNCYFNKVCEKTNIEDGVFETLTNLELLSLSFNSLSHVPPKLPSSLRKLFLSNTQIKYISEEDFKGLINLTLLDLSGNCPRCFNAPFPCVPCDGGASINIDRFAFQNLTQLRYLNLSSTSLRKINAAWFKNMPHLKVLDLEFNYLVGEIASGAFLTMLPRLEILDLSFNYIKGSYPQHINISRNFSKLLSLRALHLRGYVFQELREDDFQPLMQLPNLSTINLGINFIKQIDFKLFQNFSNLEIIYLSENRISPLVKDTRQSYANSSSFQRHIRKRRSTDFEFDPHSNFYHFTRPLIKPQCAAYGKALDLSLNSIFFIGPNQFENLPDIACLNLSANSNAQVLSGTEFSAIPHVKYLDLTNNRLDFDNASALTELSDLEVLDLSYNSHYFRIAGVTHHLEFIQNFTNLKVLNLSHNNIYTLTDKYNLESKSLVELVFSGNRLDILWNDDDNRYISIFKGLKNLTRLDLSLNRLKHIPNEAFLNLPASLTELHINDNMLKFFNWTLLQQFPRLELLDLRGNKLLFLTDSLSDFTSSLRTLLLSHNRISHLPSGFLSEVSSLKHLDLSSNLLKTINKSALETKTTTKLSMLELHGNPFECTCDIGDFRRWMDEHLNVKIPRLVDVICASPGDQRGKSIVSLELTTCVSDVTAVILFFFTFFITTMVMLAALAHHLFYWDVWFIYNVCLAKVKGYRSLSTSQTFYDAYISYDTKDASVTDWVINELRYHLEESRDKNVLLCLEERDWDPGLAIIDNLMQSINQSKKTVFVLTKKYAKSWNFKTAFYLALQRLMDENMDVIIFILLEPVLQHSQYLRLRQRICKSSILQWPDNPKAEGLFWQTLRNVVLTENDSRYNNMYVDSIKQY
Procedure, shortened: as §1

[3] = target: human TLR7 (Homo sapiens (Human), UniProt Q9NYK1); test: TLR7 inhibition reporter assay (HEK-Blue, SEAP); conditions: HEK-Blue cells overexpressing human TLR7, gardiquimod 7.5 μM stimulation
human TLR7, sequence (Q9NYK1 27-1049): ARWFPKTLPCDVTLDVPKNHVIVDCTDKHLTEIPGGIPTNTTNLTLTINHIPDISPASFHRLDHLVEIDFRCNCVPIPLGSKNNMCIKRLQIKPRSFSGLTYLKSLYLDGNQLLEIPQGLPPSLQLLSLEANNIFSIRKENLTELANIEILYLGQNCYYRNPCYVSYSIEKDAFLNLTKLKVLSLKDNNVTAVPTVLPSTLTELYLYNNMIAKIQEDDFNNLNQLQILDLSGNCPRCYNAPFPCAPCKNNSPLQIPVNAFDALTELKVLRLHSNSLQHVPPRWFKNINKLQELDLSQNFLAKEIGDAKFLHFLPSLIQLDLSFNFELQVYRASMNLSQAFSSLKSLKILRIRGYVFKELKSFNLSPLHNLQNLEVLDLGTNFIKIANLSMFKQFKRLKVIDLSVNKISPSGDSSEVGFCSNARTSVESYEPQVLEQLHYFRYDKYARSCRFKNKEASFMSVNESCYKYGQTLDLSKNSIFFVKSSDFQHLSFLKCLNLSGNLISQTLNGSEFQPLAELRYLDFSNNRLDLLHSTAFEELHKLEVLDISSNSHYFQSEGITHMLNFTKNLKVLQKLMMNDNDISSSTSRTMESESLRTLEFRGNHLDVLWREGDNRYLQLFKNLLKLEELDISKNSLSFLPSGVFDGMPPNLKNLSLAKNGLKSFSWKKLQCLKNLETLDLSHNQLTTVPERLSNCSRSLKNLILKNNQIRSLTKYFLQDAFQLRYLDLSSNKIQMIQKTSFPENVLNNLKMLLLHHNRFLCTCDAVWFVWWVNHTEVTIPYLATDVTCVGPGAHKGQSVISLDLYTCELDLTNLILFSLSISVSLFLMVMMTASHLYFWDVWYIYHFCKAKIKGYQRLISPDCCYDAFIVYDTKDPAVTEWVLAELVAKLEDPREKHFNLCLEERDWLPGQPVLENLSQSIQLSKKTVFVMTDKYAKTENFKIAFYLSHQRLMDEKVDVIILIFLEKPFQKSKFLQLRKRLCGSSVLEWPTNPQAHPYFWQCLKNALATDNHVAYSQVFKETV
Procedure, shortened: as §1

human TLR9, sequence (Q9NR96 26-1032): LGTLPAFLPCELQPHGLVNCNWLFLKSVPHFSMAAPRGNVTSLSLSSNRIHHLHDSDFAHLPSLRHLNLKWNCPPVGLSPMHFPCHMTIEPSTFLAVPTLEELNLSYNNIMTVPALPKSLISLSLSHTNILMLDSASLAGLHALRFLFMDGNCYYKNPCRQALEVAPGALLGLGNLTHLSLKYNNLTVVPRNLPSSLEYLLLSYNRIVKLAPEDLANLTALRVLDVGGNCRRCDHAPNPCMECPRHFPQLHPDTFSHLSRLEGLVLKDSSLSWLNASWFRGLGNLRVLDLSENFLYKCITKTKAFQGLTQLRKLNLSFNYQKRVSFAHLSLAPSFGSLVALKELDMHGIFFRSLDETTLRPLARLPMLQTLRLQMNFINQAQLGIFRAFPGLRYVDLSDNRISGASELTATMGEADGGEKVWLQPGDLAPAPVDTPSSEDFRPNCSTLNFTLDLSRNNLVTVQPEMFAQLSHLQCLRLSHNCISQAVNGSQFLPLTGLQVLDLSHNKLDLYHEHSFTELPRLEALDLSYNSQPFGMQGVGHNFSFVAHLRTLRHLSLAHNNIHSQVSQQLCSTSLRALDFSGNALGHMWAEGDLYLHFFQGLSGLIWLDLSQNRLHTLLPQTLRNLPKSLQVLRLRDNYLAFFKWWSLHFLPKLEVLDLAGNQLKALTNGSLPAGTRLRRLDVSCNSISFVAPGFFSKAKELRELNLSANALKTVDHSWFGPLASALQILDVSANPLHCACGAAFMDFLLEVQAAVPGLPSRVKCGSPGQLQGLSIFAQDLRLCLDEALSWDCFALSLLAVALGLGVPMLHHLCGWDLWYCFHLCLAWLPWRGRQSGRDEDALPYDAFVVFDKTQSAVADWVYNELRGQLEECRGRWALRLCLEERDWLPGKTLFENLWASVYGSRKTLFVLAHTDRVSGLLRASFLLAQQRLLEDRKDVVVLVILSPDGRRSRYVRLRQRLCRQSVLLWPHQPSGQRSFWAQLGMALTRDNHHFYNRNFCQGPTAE

| Compound | IC50 [1] | IC50 [2] | IC50 [3] |
| --- | --- | --- | --- |
| COc1ccc(-c2[nH]c3ccc(-c4ccc(N5CCOCC5)nc4)cc3c2C(C)C)cc1OC [Example 416, 4-(5-(2-(3,4-dimethoxyphenyl)-3-isopropyl-1H-indol-5-yl)pyridin-2-yl)morpholine] | > 50 µM | 0.071 µM | 2.29 µM |
| COc1ccc(-c2[nH]c3ccc(-c4ccc(N5CCNCC5)nc4)cc3c2C(C)C)cc1OC [Example 417, 2-(3,4-dimethoxyphenyl)-3-isopropyl-5-(6-(piperazin-1-yl)pyridin-3-yl)-1H-indole] | 1.22 µM | 0.0068 µM | 0.049 µM |
| COc1ccc(-c2[nH]c3ccc(-c4cnc(N5CCN(CC(C)C)CC5)cc4C)cc3c2C(C)C)cc1OC [Example 418, 2-(3,4-dimethoxyphenyl)-5-(6-(4-isobutylpiperazin-1-yl)-4-methylpyridin-3-yl)-3-isopropyl-1H-indole] | 3.54 µM | 0.041 µM | 0.879 µM |
| COc1ccc(-c2[nH]c3ccc(-c4cnc(N5CCNCC5)cc4C)cc3c2C(C)C)cc1OC [Example 419, 2-(3,4-dimethoxyphenyl)-3-isopropyl-5-(4-methyl-6-(piperazin-1-yl)pyridin-3-yl)-1H-indole] | 1.39 µM | 0.014 µM | 0.05 µM |
| COc1ccc(-c2[nH]c3ccc(-c4cnc(N5CCN(C(C)C)CC5)cc4C)cc3c2C(C)C)cc1OC [Example 420, 2-(3,4-dimethoxyphenyl)-3-isopropyl-5-(6-(4-isopropylpiperazin-1-yl)-4-methylpyridin-3-yl)-1H-indole] | 0.693 µM | 0.0047 µM | 0.334 µM |
| COc1ccc(-c2[nH]c3ccc(-c4ccc(OCCCN(C)C)nc4)cc3c2C(C)C)cc1OC [Example 421, 3-((5-(2-(3,4-dimethoxyphenyl)-3-isopropyl-1H-indol-5-yl)pyridin-2-yl)oxy)-N,N-dimethylpropan-1-amine] | 2.75 µM | 0.012 µM | 0.063 µM |
| COc1ccc(-c2[nH]c3ccc(-c4ccnc(N5CCN(C6CCCC6)CC5)c4)cc3c2C(C)C)cc1OC [Example 426, 5-(2-(4-cyclopentylpiperazin-1-yl)pyridin-4-yl)-2-(3,4-dimethoxyphenyl)-3-isopropyl-1H-indole] | 1.45 µM | 0.056 µM | 0.838 µM |
| COc1ccc(-c2[nH]c3ccc(-c4ccnc(N5CCN(C6CCC6)CC5)c4)cc3c2C(C)C)cc1OC [Example 427, 5-(2-(4-cyclobutylpiperazin-1-yl)pyridin-4-yl)-2-(3,4-dimethoxyphenyl)-3-isopropyl-1H-indole] | 2.53 µM | 0.056 µM | 0.96 µM |
| CC(C)c1c(-c2ccnc3[nH]ncc23)[nH]c2ccc(-c3ccnn3C)cc12 [Example 428, 4-(3-isopropyl-5-(1-methyl-1H-pyrazol-5-yl)-1H-indol-2-yl)-1H-pyrazolo[3,4-b]pyridine] | 14.5 µM | 0.012 µM | 0.194 µM |
| COc1ccc(-c2[nH]c3ccc(-c4cnc(N5CCN(CCC(C)O)CC5)nc4)cc3c2C(C)C)cc1OC (stereo not drawn) [Example 431, 4-(4-(5-(2-(3,4-dimethoxyphenyl)-3-isopropyl-1H-indol-5-yl)pyrimidin-2-yl)piperazin-1-yl)butan-2-ol] | 3.3 µM | 0.031 µM | 0.145 µM |
| COc1ccc(-c2[nH]c3ccc(-c4cnc(N5CCN(C)CC5)nc4)cc3c2C(C)C)cc1OC [Example 432, 2-(3,4-dimethoxyphenyl)-3-isopropyl-5-(2-(4-methylpiperazin-1-yl)pyrimidin-5-yl)-1H-indole] | 3.24 µM | 0.017 µM | 0.065 µM |
| COc1cc(-c2ccc3[nH]c(-c4ccnc5[nH]ncc45)c(C(C)C)c3c2)cnc1OC [Example 434, 4-(5-(5,6-dimethoxypyridin-3-yl)-3-isopropyl-1H-indol-2-yl)-1H-pyrazolo[3,4-b]pyridine] | 45.2 µM | 0.054 µM | 0.124 µM |
| COc1ccc(-c2[nH]c3ccc(-c4cnc(N5CCN(C6CCCC6)CC5)nc4)cc3c2C(C)C)cc1OC [Example 435, 5-(2-(4-cyclopentylpiperazin-1-yl)pyrimidin-5-yl)-2-(3,4-dimethoxyphenyl)-3-isopropyl-1H-indole] | 3.65 µM | 0.241 µM | 1.55 µM |
| COc1ccc(-c2[nH]c3ccc(-c4cnc(N5CCN(C6CCC6)CC5)nc4)cc3c2C(C)C)cc1OC [Example 436, 5-(2-(4-cyclobutylpiperazin-1-yl)pyrimidin-5-yl)-2-(3,4-dimethoxyphenyl)-3-isopropyl-1H-indole] | 11.1 µM | 0.331 µM | 1.49 µM |
| CC(C)c1c(-c2ccnc3[nH]ncc23)[nH]c2ccc(-c3c[nH]nc3C(F)(F)F)cc12 [Example 438, 4-(3-isopropyl-5-(3-(trifluoromethyl)-1H-pyrazol-4-yl)-1H-indol-2-yl)-1H-pyrazolo[3,4-b]pyridine] | 38 µM | 0.01 µM | 0.947 µM |
| CC(C)c1c(-c2ccnc3[nH]ncc23)[nH]c2ccc(-c3noc(C[C@@H]4CCCN4)n3)cc12 [Example 439, (S)-3-(3-isopropyl-2-(1H-pyrazolo[3,4-b]pyridin-4-yl)-1H-indol-5-yl)-5-(pyrrolidin-2-ylmethyl)-1,2,4-oxadiazole] | 2.14 µM | 0.0033 µM | 0.134 µM |
| CCc1c(-c2ccc(OC)c(OC)c2)[nH]c2ccc(-c3noc([C@@H](N)Cc4c[nH]cn4)n3)cc12 [Example 440, (S)-1-(3-(2-(3,4-dimethoxyphenyl)-3-ethyl-1H-indol-5-yl)-1,2,4-oxadiazol-5-yl)-2-(1H-imidazol-4-yl)ethan-1-amine] | 19.9 µM | 0.123 µM | 0.647 µM |
| CCc1c(-c2ccc(OC)c(OC)c2)[nH]c2ccc(-c3noc(C4CC(=O)N(C)C4)n3)cc12 (stereo not drawn) [Example 441, 4-(3-(2-(3,4-dimethoxyphenyl)-3-ethyl-1H-indol-5-yl)-1,2,4-oxadiazol-5-yl)-1-methylpyrrolidin-2-one] | > 50 µM | 0.356 µM | 3.29 µM |
| CCc1c(-c2ccc(OC)c(OC)c2)[nH]c2ccc(-c3noc([C@H]4CCC[C@@]4(C)N)n3)cc12 [Example 442, (1R,2S)-2-(3-(2-(3,4-dimethoxyphenyl)-3-ethyl-1H-indol-5-yl)-1,2,4-oxadiazol-5-yl)-1-methylcyclopentan-1-amine] | 4.58 µM | 0.09 µM | 0.903 µM |
| CCc1c(-c2ccc(OC)c(OC)c2)[nH]c2ccc(-c3noc(C4CCN(Cc5ccccc5)C4)n3)cc12 (stereo not drawn) [Example 443, 5-(1-benzylpyrrolidin-3-yl)-3-(2-(3,4-dimethoxyphenyl)-3-ethyl-1H-indol-5-yl)-1,2,4-oxadiazole] | 10.3 µM | 0.74 µM | 3.28 µM |
| CCc1c(-c2ccc(OC)c(OC)c2)[nH]c2ccc(-c3noc(C4CCN(Cc5ccccc5)CC4)n3)cc12 [Example 444, 5-(1-benzylpiperidin-4-yl)-3-(2-(3,4-dimethoxyphenyl)-3-ethyl-1H-indol-5-yl)-1,2,4-oxadiazole] | 11.2 µM | 0.443 µM | 3.13 µM |
| CCc1c(-c2ccc(OC)c(OC)c2)[nH]c2ccc(-c3noc(C4CCN(C(C)C)CC4)n3)cc12 [Example 445, 3-(2-(3,4-dimethoxyphenyl)-3-ethyl-1H-indol-5-yl)-5-(1-isopropylpiperidin-4-yl)-1,2,4-oxadiazole] | 1.85 µM | 0.037 µM | 0.338 µM |
| CC(C)c1c(-c2ccnc3[nH]ncc23)[nH]c2ccc(-c3noc(C4CCN(C(=O)CN(C)C)CC4)n3)cc12 [Example 446, 2-(dimethylamino)-1-(4-(3-(3-isopropyl-2-(1H-pyrazolo[3,4-b]pyridin-4-yl)-1H-indol-5-yl)-1,2,4-oxadiazol-5-yl)piperidin-1-yl)ethan-1-one] | 1.02 µM | 0.004 µM | 0.027 µM |
| CCc1c(-c2ccc(OC)c(OC)c2)[nH]c2ccc(-c3noc(CCC4CCNCC4)n3)cc12 [Example 447, 3-(2-(3,4-dimethoxyphenyl)-3-ethyl-1H-indol-5-yl)-5-(2-(piperidin-4-yl)ethyl)-1,2,4-oxadiazole] | 3.46 µM | 0.201 µM | 0.74 µM |
| CCc1c(-c2ccnc(C)c2)[nH]c2ccc(-c3noc(CCC4CCNCC4)n3)cc12 [Example 448, 3-(3-ethyl-2-(2-methylpyridin-4-yl)-1H-indol-5-yl)-5-(2-(piperidin-4-yl)ethyl)-1,2,4-oxadiazole] | 1.79 µM | 0.05 µM | 0.327 µM |
| CCc1c(-c2ccnc(C)c2)[nH]c2ccc(-c3noc(CCC4CCN(C(C)C)CC4)n3)cc12 [Example 449, 3-(3-ethyl-2-(2-methylpyridin-4-yl)-1H-indol-5-yl)-5-(2-(1-isopropylpiperidin-4-yl)ethyl)-1,2,4-oxadiazole] | 1.36 µM | 0.037 µM | 0.239 µM |
| CCc1c(-c2ccc(OC)c(OC)c2)[nH]c2ccc(-c3noc(C4CCNC4)n3)cc12 (stereo not drawn) [Example 450, 3-(2-(3,4-dimethoxyphenyl)-3-ethyl-1H-indol-5-yl)-5-(pyrrolidin-3-yl)-1,2,4-oxadiazole] | 1.69 µM | 0.019 µM | 0.121 µM |
| CCc1c(-c2ccc(OC)c(OC)c2)[nH]c2ccc(-c3noc(CCOC)n3)cc12 [Example 451, 3-(2-(3,4-dimethoxyphenyl)-3-ethyl-1H-indol-5-yl)-5-(2-methoxyethyl)-1,2,4-oxadiazole] | > 50 µM | 1.29 µM | 3.98 µM |
